According to the supplement of paper PMC10307832:

How the values were obtained:
Assay in all cases: relative viability (nuclei count vs DMSO), 5 days (fraction); higher = more cells survive
Pictilisib + Bortezomib = compound: CS(=O)(=O)N1CCN(Cc2cc3nc(-c4cccc5[nH]ncc45)nc(N4CCOCC4)c3s2)CC1 [Pictilisib] + CC(C)C[C@H](NC(=O)[C@H](Cc1ccccc1)NC(=O)c1cnccn1)B(O)O [Bortezomib] (partner 0.002 µM)
Summary of the method: (§1)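 After 5 days of treatment, lung cancer cells in 1536-well plates were fixed and stained in a single step (final 0.05% Triton X-100, 1% formaldehyde, 1 ug/ml Hoechst) and their nuclei counted on 4× images. Treatment had been applied by pin tool the day after seeding as one drug alone or as a fixed anchor-drug dose with five library-drug doses (not always all listed) in √10 steps. Relative viability is the nuclei count of treated wells divided by that of vehicle wells, and values are medians of duplicate plates.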

Pictilisib + Linsitinib = compound: CS(=O)(=O)N1CCN(Cc2cc3nc(-c4cccc5[nH]ncc45)nc(N4CCOCC4)c3s2)CC1 [Pictilisib] + C[C@]1(O)C[C@@H](c2nc(-c3ccc4ccc(-c5ccccc5)nc4c3)c3c(N)nccn32)C1 [Linsitinib] (partner 1 µM)
Summary of the method: as §1

Pictilisib + Tozasertib = compound: CS(=O)(=O)N1CCN(Cc2cc3nc(-c4cccc5[nH]ncc45)nc(N4CCOCC4)c3s2)CC1 [Pictilisib] + Cc1cc(Nc2cc(N3CCN(C)CC3)nc(Sc3ccc(NC(=O)C4CC4)cc3)n2)n[nH]1 [Tozasertib] (partner 0.1 µM)
Summary of the method: as §1

Pictilisib + Phenformin = compound: CS(=O)(=O)N1CCN(Cc2cc3nc(-c4cccc5[nH]ncc45)nc(N4CCOCC4)c3s2)CC1 [Pictilisib] + N=C(N)NC(=N)NCCc1ccccc1 [Phenformin] (partner 250 µM)
Summary of the method: as §1

MK-2206 + Luminespib = compound: NC1(c2ccc(-c3nc4ccn5c(=O)[nH]nc5c4cc3-c3ccccc3)cc2)CCC1 [MK-2206] + CCNC(=O)c1noc(-c2cc(C(C)C)c(O)cc2O)c1-c1ccc(CN2CCOCC2)cc1 [Luminespib] (partner 0.01 µM)
Summary of the method: as §1

UMC-11 gave a relative viability (Pictilisib + Bortezomib; first compound 0.02 µM) of 0.828, a relative viability (Pictilisib + Bortezomib; first compound 0.06325 µM) of 0.902 and a relative viability (Pictilisib + Bortezomib; first compound 0.6325 µM) of 0.78. It also gave a relative viability (Pictilisib + Bortezomib; first compound 2 µM) of 0.768, a relative viability (Pictilisib + Linsitinib; first compound 0.02 µM) of 0.973 and a relative viability (Pictilisib + Linsitinib; first compound 0.06325 µM) of 1.03. The relative viability (Pictilisib + Linsitinib; first compound 0.6325 µM) was 1.07, the relative viability (Pictilisib + Linsitinib; first compound 2 µM) was 0.928 and the relative viability (Pictilisib + Tozasertib; first compound 0.02 µM) was 0.202. It also gave a relative viability (Pictilisib + Tozasertib; first compound 0.06325 µM) of 0.192, a relative viability (Pictilisib + Tozasertib; first compound 0.6325 µM) of 0.2 and a relative viability (Pictilisib + Tozasertib; first compound 2 µM) of 0.216. For the same cell line, the relative viability (Pictilisib + Phenformin; first compound 0.02 µM) was 0.331, the relative viability (Pictilisib + Phenformin; first compound 0.06325 µM) was 0.346 and the relative viability (Pictilisib + Phenformin; first compound 0.6325 µM) was 0.312. For the same cell line, the relative viability (Pictilisib + Phenformin; first compound 2 µM) was 0.315, the relative viability (MK-2206 + Luminespib; first compound 0.01 µM) was 1 and the relative viability (MK-2206 + Luminespib; first compound 0.03162 µM) was 0.944. For the same cell line, the relative viability (MK-2206 + Luminespib; first compound 0.3162 µM) was 1.12 and the relative viability (MK-2206 + Luminespib; first compound 1 µM) was 1.1.
